From US10328128B2, “Treatment of infection by human enterovirus D68” (priority 2014, dated 2019)
Read-outs that look alike come from different tables or passages of the source.

B1: DAS181: fusion protein of the catalytic domain of A. viscosus sialidase and a human amphiregulin GAG-binding anchoring domain (SEQ ID NOs: 15 and 16) (protein)
chain: MGDHPQATPAPAPDASTELPASMSQAQHLAANTATDNYRIPAITTAPNGDLLISYDERPKDNGNGGSDAPNPNHIVQRRSTDGGKTWSAPTYIHQGTETGKKVGYSDPSYVVDHQTGTIFNFHVKSYDQGWGGSRGGTDPENRGIIQAEVSTSTDNGWTWTHRTITADITKDKPWTARFAASGQGIQIQHGPHAGRLVQQYTIRTAGGAVQAVSVYSDDHGKTWQAGTPIGTGMDENKVVELSDGSLMLNSRASDGSGFRKVAHSTDGGQTWSEPVSDKNLPDSVDNAQIIRAFPNAAPDDPRAKVLLLSHSPNPRPWSRDRGTISMSCDDGASWTTSKVFHEPFVGYTTIAVQSDGSIGLLSEDAHNGADYGGIWYRNFTMNWLGEQCGQKPAKRKKKGGKNGKNRRNRKKKNPGDHPQATPAPAPDASTELPASMSQAQHLAANTATDNYRIPAITTAPNGDLLISYDERPKDNGNGGSDAPNPNHIVQRRSTDGGKTWSAPTYIHQGTETGKKVGYSDPSYVVDHQTGTIFNFHVKSYDQGWGGSRGGTDPENRGIIQAEVSTSTDNGWTWTHRTITADITKDKPWTARFAASGQGIQIQHGPHAGRLVQQYTIRTAGGAVQAVSVYSDDHGKTWQAGTPIGTGMDENKVVELSDGSLMLNSRASDGSGFRKVAHSTDGGQTWSEPVSDKNLPDSVDNAQIIRAFPNAAPDDPRAKVLLLSHSPNPRPWSRDRGTISMSCDDGASWTTSKVFHEPFVGYTTIAVQSDGSIGLLSEDAHNGADYGGIWYRNFTMNWLGEQCGQKPAKRKKKGGKNGKNRRNRKKKNP

Key:
[1] = system: four EV-D68 strains; assay: microbe, parasite or virus in culture; format: cell-based, Human enterovirus D68; settings: for activity against EV-D68 strains in words: highest concentration tested 10 μM; for EC50: read-out: EC50 values, range over all four EV-D68 strains
[2] = typical fluoxetine dosing; cited from earlier work
[3] = system: EV-D68 1962 prototype strain (Fermon); assay: CPE inhibition assay in RD cells; format: cell-based, Human enterovirus D68; settings: read-out: Mean EC50 ± SD
[4] = system: EV-D68 strain USA-MO/18949; assay: CPE inhibition assay in RD cells; format: cell-based, Human enterovirus D68; settings: read-out: Mean EC50 ± SD
[5] = system: EV-D68 strain USA-MO/18947; assay: CPE inhibition assay in RD cells; format: cell-based, Human enterovirus D68; settings: read-out: Mean EC50 ± SD
[6] = system: EV-D68 strain USA-IL/18956; assay: CPE inhibition assay in RD cells; format: cell-based, Human enterovirus D68; settings: read-out: Mean EC50 ± SD
[7] = system: EV-D68 Fermon strain; assay: CPE inhibition assay over a range of virus doses; format: cell-based, Human enterovirus D68; settings: Enterovirus D, EVD68; Fermon strain, 100-fold virus dose range, five half-log dilutions; upper end printed as >10 μM; data not shown; read-out: EC50 values over a range of virus doses
Procedure: Antiviral activity was assessed in a homogeneous cell-based assay that measured inhibition of viral cytopathic effect in human rhabdomyosarcoma cells (RD; ATCC CCL-136). The viruses included three representative EV-D68 strains from the 2014 outbreak (USA-MO/18947, USA-MO/18949, USA-IL/18956) (Brown et al. 2014. Seven Strains of Enterovirus D68 Detected in the United States during the 2014 Severe Respiratory Disease Outbreak. Genome Announc 2:e01201-01214), as well as the 1962 prototype strain (Fermon) (Schieble et al. 1967. A probable new human picornavirus associated with respiratory diseases. Am J Epidemiol 85:297-310). For the CPE inhibition assay, half-log10 dilutions of drug compound (10 μM to 0.001 μM) were combined with 100 CCID50 (50% cell culture infectious dose) of virus and added to monolayers of RD cells (5000 cells per well) in 384-well, white, flat-bottom microplates. Plates were incubated at 33° C. and 5% CO2 for five days, and cell viability was assessed using ATPLite® (Perkin Elmer, Waltham, Mass.) by adding 15 μL of cell lysis buffer and then 15 μL of substrate solution, following the manufacturer's recommendations.
In both studies, the methods were somewhat different from our approach. […] For the other compounds tested, similar EC50 values were observed across this same dose range. […]

[8] = system: enterovirus D68 strains (EV-D68); assay: DAS181 specific anti-viral assay, text summary over all strains and conditions; format: cell-based, Human enterovirus D68; settings: all conditions and all enterovirus strains tested
Procedure: (§1) As shown in the Table 2, DAS181 was tested to assess antiviral activity of the compound using a cell-based assay, and using enterovirus D68 strains (EV-D68). In this assay, using four specific EV-D68 strains, the compound was added at different time-points to each of the strains. The three time conditions tested were: (i) DAS181 preincubated with cells for 24 h before virus infection; (ii) DAS181 added simultaneously with virus; and (iii) DAS181 added 4 h post-infection. Fermon, an original prototypic strain, was used as control.

[9] = Sialidase activity with fluorogenic substrate 4-MU-NANA; format: biochemical; settings: 37° C.
Procedure: The sialidase activity of DAS181 was measured using the fluorogenic substrate 4-methylumbelliferyl-N-acetyl-α-D-neuraminic acid (4-MU-NANA; Sigma). One unit of sialidase is defined as the amount of enzyme that releases 10 nmol of MU from 4-MU-NANA in 10 minutes at 37° C. (50 mM CH3COOH—NaOH buffer, pH 5.5) in a reaction that contains 20 nmol of 4-MU-NANA in a 0.2 ml volume (Potier et al., Anal. Biochem., 94:287-296, 1979). The specific activity of DAS181 was determined to be 1,300 U/mg protein (0.77 μg DAS181 protein per unit of activity).

[10] = system: EV-D68 strain USA-MO/238121; assay: DAS181 specific anti-viral assay, time of addition; format: cell-based, Human enterovirus D68; settings: read-out: DAS181 Mean EC50 ± SD
Procedure: as §1

[11] = system: EV-D68 strain USA-IL/238139; assay: DAS181 specific anti-viral assay, time of addition; format: cell-based, Human enterovirus D68; settings: read-out: DAS181 Mean EC50 ± SD
Procedure: as §1

[12] = system: EV-D68 strain Fermon; assay: DAS181 specific anti-viral assay, time of addition; format: cell-based, Human enterovirus D68; settings: read-out: DAS181 Mean EC50 ± SD
Procedure: as §1

[13] = system: EV-D68 strain USA-MO/238102; assay: DAS181 specific anti-viral assay, time of addition; format: cell-based, Human enterovirus D68; settings: read-out: DAS181 Mean EC50 ± SD
Procedure: as §1

[14] = Enterovirus D, EVD68, RD, 120 h
[15] = Enterovirus D, EVD68, 120 h, RD cells, 100 CCID50 virus, 33° C., five days, strain Fermon
[16] = Enterovirus D, EVD68, 120 h, RD cells, 100 CCID50 virus, 33° C., five days, strain USA-MO/18949
[17] = Enterovirus D, EVD68, 120 h, RD cells, 100 CCID50 virus, 33° C., five days, strain USA-MO/18947
[18] = Enterovirus D, EVD68, 120 h, RD cells, 100 CCID50 virus, 33° C., five days, strain USA-IL/18956
[19] = RD cells, 100 CCID50 virus, 33° C., five days, strain Fermon
[20] = RD cells, 100 CCID50 virus, 33° C., five days, strain USA-MO/18949
[21] = RD cells, 100 CCID50 virus, 33° C., five days, strain USA-MO/18947
[22] = RD cells, 100 CCID50 virus, 33° C., five days, strain USA-IL/18956
[23] = 24 hr preincubation before infection
[24] = Drug addition 4 hr after infection
[25] = No preincubation (added simultaneously with virus)

Molecule	EC50 [3, 14] [nM]	EC50 [4, 14] [nM]	EC50 [5, 14] [nM]	EC50 [6, 14] [nM]	EC50 [3, 15] [nM]	EC50 [4, 16] [nM]	EC50 [5, 17] [nM]	EC50 [6, 18] [nM]	also measured
CNCCC(Oc1ccc(C(F)(F)F)cc1)c1ccccc1 (centres unmarked) [Fluoxetine, fluoxetine]	–	–	–	–	–	–	–	–	activity against EV-D68 strains in words ([1]; RD cells): significant activity; maximal plasma levels [2]: < 200 nM
CCOC(=O)c1c(CSc2ccccc2)n(C)c2cc(Br)c(O)c(CN(C)C)c12 [Arbidol]	> 10000	> 10000	> 10000	> 10000	–	–	–	–	–
CC(=O)Oc1ccccc1C(=O)Nc1ncc([N+](=O)[O-])s1 [Nitazoxanide, nitazoxanide]	–	–	–	–	> 10000	> 10000	> 10000	> 10000	–
COc1ccc(OCc2ccc(COc3c(Cl)cccc3Cl)cc2)c(Cl)c1 [Pocapavir, pocapavir]	–	–	–	–	–	–	–	–	EC50 [3, 19]: > 10000 nM; EC50 [4, 20]: > 10000 nM; activity against EV-D68 strains in words ([1]; RD cells): inactive; EC50 [5, 21]: > 10000 nM; EC50 [6, 22]: > 10000 nM
NC(=O)c1nc(F)c[nH]c1=O [Favipiravir, favipiravir]	–	–	–	–	> 10000	> 10000	> 10000	> 10000	–
C#CC[C@@H](C(=O)N[C@H](/C=C/C(=O)OCC)C[C@@H]1CCNC1=O)n1cccc(NC(=O)c2cc(C)on2)c1=O [V-7404]	–	–	–	–	3.5 ± 0.6	27 ± 8	26 ± 4	24 ± 7	EC50 ([1]; Enterovirus D, EVD68, RD): 1.5 to 5.1 nM
COc1ccc(CC(C)NCC(O)c2ccc(O)c(NC=O)c2)cc1 (centres unmarked) [Formoterol furmarate]	> 10000	> 10000	> 10000	> 10000	–	–	–	–	–
OC(c1cc(C(F)(F)F)nc2c(C(F)(F)F)cccc12)C1CCCCN1 (centres unmarked) [Mefloquine, mefloquine]	–	–	–	–	> 10000	> 10000	> 10000	> 10000	–
CCOC(=O)C1=C[C@@H](OC(CC)CC)[C@H](NC(C)=O)[C@@H](N)C1 [Oseltamivir]	> 10000	> 10000	> 10000	> 10000	–	–	–	–	–
NC12CC3CC(CC(C3)C1)C2 [Amantidine]	> 10000	> 10000	> 10000	> 10000	–	–	–	–	–
CCOC(=O)/C=C/[C@H](C[C@@H]1CCNC1=O)NC(=O)[C@@H](CC(=O)[C@@H](NC(=O)c1cc(C)on1)C(C)C)Cc1ccc(F)cc1 [Rupintrivir, rupintrivir]	2 ± 0.5	1.5 ± 3	4.6 ± 1.6	3.7 ± 7	–	–	–	–	EC50 ([1]; Enterovirus D, EVD68, RD): 1.5 to 5.1 nM
CCC(C)n1ncn(-c2ccc(N3CCN(c4ccc(OCC5COC(Cn6cncn6)(c6ccc(Cl)cc6Cl)O5)cc4)CC3)cc2)c1=O (centres unmarked) [Itraconazole, itraconazole]	–	–	–	–	> 10000	> 10000	> 10000	> 10000	activity against EV-D68 strains in words ([1]; RD cells): failed to inhibit; EC50 [7]: 290 to 10000 nM
B1	–	–	–	–	–	–	–	–	EC50 [3, 19]: 1.2 ± 0.9 nM; EC50 [4, 20]: 2.6 ± 1.2 nM; EC50 ([1]; RD cells, all four EV-D68 strains): 1.2 to 4 nM; EC50 [5, 21]: 3.6 ± 1.5 nM; potency in words [8]: low micromolar potency; EC50 [6, 22]: 4 ± 1.6 nM; DAS181 protein per unit of activity ([9]; pH 5.5): 0.77 µg; specific activity ([9]; pH 5.5, one unit releases 10 nmol MU in 10 minutes): 1,300 U/mg protein; EC50 [10, 23]: 2.7 ± 0.4 nM; EC50 [10, 24]: 3.4 ± 1 nM; EC50 [10, 25]: 2.6 ± 1.2 nM; EC50 [11, 23]: 3.2 ± 1 nM; EC50 [11, 24]: 4 ± 1.2 nM; EC50 [11, 25]: 4 ± 1.6 nM; EC50 [12, 23]: 1 ± 0.1 nM; EC50 [12, 24]: 3.6 ± 1.5 nM; EC50 [12, 25]: 1.2 ± 0.9 nM; EC50 [13, 23]: 2 ± 0.1 nM; EC50 [13, 24]: 4.3 ± 0.4 nM; EC50 [13, 25]: 3.6 ± 1.5 nM
